Our source for the induction of apoptosis, cell cycle distribution and EGFR phosphorylation values is US11219625B2, “Inhibitors of N-linked glycosylation and methods using same” (YALE UNIVERSITY, priority 2015, dated 2022).

SMILES strings stand for the structures.

Holding throughout (assay type): cell-based
One assay relates to A549 cells. Briefly: Apoptosis by flow cytometry (Annexin-V, 7-AAD), A549. The following applies: A549, NGI-1 10 μM for 2 or 5 days, or Tn 1 μM. As for the experimental part: Analysis of apoptosis susceptibility in A549 and PC9 NSCLC cell lines followed treatment with NGI-1 10 μM or Tn 1 μM for 2 days was done by flow cytometry after staining the cells with Annexin-V (early apoptosis) and 7-AAD (viability dye). […] FIG. 9C: Western blot of BIP protein for A549 and PC9 cells after treatment with 10 μM NGI-1 for 6, 12 or 24 h. The expression of GAPDH was used as a loading control.

A further assay deals with H3255 cells. Description: Cell cycle distribution by flow cytometry, H3255. The following applies: H3255, NGI-1 24 h, p<0.05. The protocol:
FIGS. 7A-7D illustrate EGFR kinase domain mutant cell lines growth inhibition and cell cycle arrest response to NGI-1. FIG. 7A illustrates MTT assays to determine the effects of NGI-1 on growth of H3255 cells. FIG. 7B illustrates MIT assays to determine the effects of NGI-1 on growth of HCC827 cells. EGFR kinase domain mutant cell lines H3255 and HCC827 cells were untreated or treated with 10 μM NGI-1 for 5 d. […] FIG. 7C illustrates cell cycle distribution of H3255 after 24 h NGI-1 treatment for 24 h determined by flow cytometry. FIG. 7D illustrates cell cycle distribution of HCC827 after 24 h NGI-1 treatment for 24 h determined by flow cytometry.
For the assessment of cell cycle distribution, 1×10^6 cells were collected, washed once with ice-cold PBS and fixed in ice-cold 70% ethanol overnight at −20° C. Thereafter, cells were washed twice with PBS and incubated for 30 min at room temperature in 200 μL of Guava Cell Cycle Reagent (Guava Technologies). Cytofluorometric acquisitions were performed on a LSRII cytometer (BD Biosciences). First-line analysis was performed with Flow Jo software, upon gating on the events characterized by normal forward and side scatter parameters and discrimination of doublets in a FSC-A vs. FSC-H bivariate plot. Approximately 30,000 cells were analyzed per experiment, and the mean value was obtained from 3 independent assays.

The next assay concerns EGFR. Briefly: Western blot of EGFR phosphorylation, PC9 cells. The following applies: PC9, 10 μM NGI-1, 1 day. As for the experimental part: FIGS. 4A-4H illustrate the finding that NGI-1 blocks RTK driven proliferation. FIG. 4A illustrates western blot analysis of EGFR phosphorylation (Y1173) and gel mobility in PC9 (EGFR-mutant) and A549 (k-ras mutant) NSCLC cells after 10 μM NGI-1 treatment for 24 h. […] Actin expression was used as a control for protein loading. FIG. 4B illustrates MTT assays results of PC9 following treatment with 10 μM NGI-1 or 1 μM tunicamycin for a total of 5 d. Relative proliferation id reported in fold increase from day 0. FIG. 4C illustrates MTT assays results of A549 following treatment with 10 μM NGI-1 or 1 μM tunicamycin for a total of 5 d. Relative proliferation id reported in fold increase from day 0. FIG. 4D illustrates protein phosphorylation profiles of PC9 cells analyzed by phospho-protein array to assess the response of PC9 to 10 μM NGI-1 for 24 h. FIG. 4E illustrates protein phosphorylation profiles of A549 cells analyzed by phospho-protein array to assess the response of A549 to 10 μM NGI-1 for 24 h. FIG. 4F illustrates western blot analysis of FGFR phosphorylation (Y653/654) and gel mobility for H1581 (TKI sensitive) and H2444 (TKI insensitive) NSCLC cell lines. […] FIG. 4G illustrates MTT assays for H1581 cells treated with 10 μM NGI-1 for 5 d. Asterisk (***) indicates a significant difference p<0.001 for MTT. FIG. 4H illustrates MTT assays for H2444 cells treated with 10 μM NGI-1 for 5 d. […]

Turning to `Cc1cnc(NC(=O)c2cc(S(=O)(=O)N(C)C)ccc2N2CCCC2)s1` [NGI-1, 5-(N,N-Dimethylsulfamoyl)-N-(5-methylthiazol-2-yl)-2-(pyrrolidin-1-yl)benzamide], in the assay on A549 cells, the induction of apoptosis result is “did not induce apoptosis”. In addition, in the assay with H3255 cells, the cell cycle distribution result was “undergo G1 arrest”. Besides, the EGFR phosphorylation entry with EGFR is listed as “blocked phosphorylation of KD mutant EGFR”.
